Laboratory results from ChEMBL document CHEMBL5029155, “Design, Synthesis, and Biological Evaluation of Stable Colchicine-Binding Site Tubulin Inhibitors 6-Aryl-2-benzoyl-pyridines as Potential Anticancer Agents” (J Med Chem, 2021).

Columns and labels:
[1] = system: MDA-MB-453; test: Antiproliferative activity against human MDA-MB-453 cells assessed as cell growth inhibition incubated for 72 hrs by MTS assay; assay type: functional, cell-based; settings: MDA-MB-453, 72 h
[2] = system: A-375; test: Antiproliferative activity against human A-375 cells assessed as cell growth inhibition incubated for 72 hrs by MTS assay; assay type: functional, cell-based; settings: A-375, 72 h
[3] = Metabolic stability in human liver microsomes assessed as intrinsic clearance in presence of NADPH regenerating system by UPLC-MS analysis; assay type: ADME, Microsome; settings: read-out: CLH
[4] = system: RPMI-7951; test: Antiproliferative activity against human RPMI-7951 cells assessed as cell growth inhibition incubated for 72 hrs by MTS assay; assay type: functional, cell-based; settings: RPMI-7951, 72 h
[5] = system: MDA-MB-231; test: Antiproliferative activity against human MDA-MB-231 cells assessed as cell growth inhibition incubated for 72 hrs by MTS assay; assay type: functional, cell-based; settings: MDA-MB-231, 72 h
[6] = Metabolic stability in mouse liver microsomes assessed as intrinsic clearance in presence of NADPH regenerating system by UPLC-MS analysis; assay type: ADME, Microsome; settings: read-out: CLH
[7] = Metabolic stability in human liver microsomes assessed as half life in presence of NADPH regenerating system by UPLC-MS analysis; assay type: ADME, Microsome; settings: for t1/2: microsomes
[8] = Metabolic stability in mouse liver microsomes assessed as half life in presence of NADPH regenerating system by UPLC-MS analysis; assay type: ADME, Microsome; settings: for t1/2: microsomes
[9] = system: M14; test: Antiproliferative activity against human M14 cells assessed as cell growth inhibition incubated for 72 hrs by MTS assay; assay type: functional, cell-based; settings: M14, 72 h
[10] = system: SK-BR-3; test: Antiproliferative activity against human SK-BR-3 cells assessed as cell growth inhibition incubated for 72 hrs by MTS assay; assay type: functional, cell-based; settings: SK-BR-3, 72 h
[11] = system: M14; test: Cytotoxicity against paclitaxel resistant human M14 cells measured after 72 hrs […]; assay type: functional, cell-based; settings: M14, 72 h
[12] = system: M14; test: Cytotoxicity against human M14 cells measured after 72 hrs […]; assay type: functional, cell-based; settings: M14, 72 h
[13] = Induction of apoptosis in human A375/TxR cells assessed as apoptotic cells at 10 nM measured for 24 hrs by annexin VFITC /PI staining based analysis (reference value: […]); assay type: functional
[14] = Induction of cell cycle arrest in human A375/TxR cells assessed as accumulation at G2/M phase at 10 nM measured for 24 hrs by PI staining based flow cytometry analysis

Structure (SMILES) | IC50 [1] | IC50 [2] | CLint scaled [3] | IC50 [4] | IC50 [5] | CLint scaled [6] | t1/2 [7] | t1/2 [8] | IC50 [9] | IC50 [10] | IC50 [11] | half-life ([7]; liver microsomes) | half-life ([8]; liver microsomes) | IC50 [12] | Activity [13] | Activity [14]
COc1cc(C(=O)c2cncc(-c3ccc(C)c(O)c3)n2)cc(OC)c1OC | 4 nM | 5.9 nM | 26.6 mL/min/kg | 5.2 nM | 8 nM | 28.7 mL/min/kg | 46.8 min | 119.4 min | 5.2 nM | 26.7 nM | – | – | – | – | – | –
COc1cc(C(=O)c2cncc(-c3ccc(C)cc3)n2)cc(OC)c1OC | 6.7 nM | 2.5 nM | – | 2.2 nM | 4.8 nM | 65.8 mL/min/kg | 20.4 min | 42.6 min | 1.7 nM | 7.1 nM | – | – | – | – | – | –
COc1cc(C(=O)c2cncc(-c3cccc4[nH]ncc34)n2)cc(OC)c1OC | 51.5 nM | 20.8 nM | – | 23.8 nM | 38 nM | – | – | – | 21.9 nM | 46.1 nM | – | – | – | – | – | –
COc1cc(C(=O)c2ccnc(-c3ccc(C)c(O)c3)n2)cc(OC)c1OC | 2.8 nM | 6.8 nM | 142 mL/min/kg | 7.2 nM | 15.1 nM | 43.8 mL/min/kg | 9 min | 78.6 min | 5.4 nM | 12 nM | – | – | – | – | – | –
COc1cc2c(c(OC)c1OC)-c1ccc(OC)c(=O)cc1[C@@H](NC(C)=O)CC2 [COLCHICINE] | – | – | – | – | – | – | – | – | – | – | > 1000 nM | – | – | – | – | –
COc1cc(C(=O)c2cncc(-c3c[nH]c4ccccc34)n2)cc(OC)c1OC | 13.2 nM | 16.7 nM | – | 14.4 nM | 12.4 nM | – | – | – | 19.2 nM | 35 nM | – | – | – | – | – | –
COc1cc(-c2n[nH]c3ccc(-c4ccc(C)c(O)c4)nc23)cc(OC)c1OC | 54.9 nM | 21.1 nM | 6.1 mL/min/kg | 22.9 nM | 22.3 nM | 20.5 mL/min/kg | 205.2 min | 167.4 min | 18.5 nM | 65.6 nM | – | – | – | – | – | –
COc1cc(C(=O)c2cccc(-c3ccc(C)cc3)n2)cc2c1OCCO2 | 3.2 nM | 3.6 nM | 172 mL/min/kg | 3.1 nM | 5.3 nM | 1900 mL/min/kg | 7.2 min | 1.8 min | 4.5 nM | 3.2 nM | – | – | – | – | – | –
COCCOc1c(OC)cc(C(=O)c2cccc(-c3ccc(C)cc3)n2)cc1OC | 2.1 nM | 3.7 nM | 136 mL/min/kg | 5 nM | 6.6 nM | 397 mL/min/kg | 9 min | 8.4 min | 2.4 nM | 4.2 nM | – | – | – | – | – | –
COc1cc(C(=O)c2cccc(-c3ccc4c(c3)CCN4)n2)cc(OC)c1OC | 5.9 nM | 5 nM | 83.6 mL/min/kg | 5.9 nM | 5.3 nM | 818 mL/min/kg | – | – | 5.6 nM | 5.5 nM | – | 15 min | 4.2 min | – | – | –
COc1cc(C(=O)c2nc(-c3ccc(C(F)F)cc3)ccc2F)cc(OC)c1OC | 4.2 nM | 2.6 nM | 38.1 mL/min/kg | 2.1 nM | 4.3 nM | 38.2 mL/min/kg | 33 min | 90 min | 3.2 nM | 2.4 nM | – | – | – | – | – | –
COc1cc(C(=O)c2cc(C)cc(-c3ccc(C)c(N)c3)n2)cc(OC)c1OC | 5.5 nM | 8.8 nM | – | 6.3 nM | 5.5 nM | – | – | – | 5.9 nM | 3.5 nM | – | – | – | – | – | –
COc1cc(C(=O)c2cc(C)cc(-c3ccc(C)cc3)n2)cc(OC)c1OC | 9.7 nM | 4.3 nM | 28.8 mL/min/kg | 6.4 nM | 16 nM | 824 mL/min/kg | 43.2 min | 4.2 min | 4.4 nM | 5.5 nM | – | – | – | – | – | –
CCc1c(OC)cc(C(=O)c2cccc(-c3ccc(C)c(O)c3)n2)cc1OC | 8.7 nM | 15.1 nM | 22.9 mL/min/kg | 13.9 nM | 37.4 nM | 16.2 mL/min/kg | 54.6 min | 211.8 min | 24.8 nM | 10.1 nM | – | – | – | – | – | –
COc1cc(-n2ccc3ccc(-c4ccc(C)cc4)nc32)cc(OC)c1OC | 139 nM | 174 nM | – | 205 nM | 515 nM | – | – | – | 76.5 nM | 82.9 nM | – | – | – | – | – | –
CC(=O)O[C@H]1C(=O)[C@@]2(C)[C@H]([C@H](OC(=O)c3ccccc3)[C@]3(O)C[C@H](OC(=O)[C@H](O)[C@@H](NC(=O)c4ccccc4)c4ccccc4)C(C)=C1C3(C)C)[C@]1(OC(C)=O)CO[C@@H]1C[C@@H]2O [PACLITAXEL] | – | – | – | – | – | – | – | – | – | – | 186 nM | – | – | 0.5 nM | 11.8% | –
COc1cc(C(=O)c2cc(F)cc(-c3ccc(C(F)F)cc3)c2)cc(OC)c1OC | 89.7 nM | 80.9 nM | – | 40.8 nM | 45 nM | – | – | – | 56.3 nM | 52.3 nM | – | – | – | – | – | –
COc1cc(C(=O)c2c[nH]c(-c3ccc(C)c(O)c3)n2)cc(OC)c1OC | 23.2 nM | 41.2 nM | 8.8 mL/min/kg | 78.4 nM | 24.3 nM | 40.6 mL/min/kg | 142.2 min | 84.6 min | 32.4 nM | 57.6 nM | – | – | – | – | – | –
COc1cc(C(=O)c2cccc(-c3ccc(C(F)F)cc3)n2)cc(OC)c1OC | 4 nM | 3 nM | 240 mL/min/kg | 2.8 nM | 4.7 nM | 271 mL/min/kg | 5.4 min | 12.6 min | 4.7 nM | 3.8 nM | – | – | – | – | – | –
COc1cc(C(=O)c2cccc(-c3ccc(N(C)C)cc3)n2)cc(OC)c1OC | 33.7 nM | 53.8 nM | – | 44 nM | 42.7 nM | – | – | – | 63.5 nM | 54.5 nM | – | – | – | – | – | –
COc1cc(C(=O)c2ccnc(-c3c[nH]c4ccccc34)n2)cc(OC)c1OC | 14.2 nM | 36.1 nM | – | 29.7 nM | 31.6 nM | – | – | – | 29.1 nM | 17.1 nM | – | – | – | – | – | –
COc1cc(C(=O)c2cccc(-c3ccc(C)c(NC(C)=O)c3)n2)cc(OC)c1OC | 19.3 nM | 28.8 nM | – | 21.2 nM | 33.4 nM | – | – | – | 12.6 nM | 15.2 nM | – | – | – | – | – | –
COc1cc(C(=O)c2nc(-c3ccc(C)c(O)c3)[nH]c2Br)cc(OC)c1OC | 68.1 nM | 85 nM | – | 133 nM | 70.9 nM | – | – | – | 76.3 nM | 119 nM | – | – | – | – | – | –
COc1cc(C(=O)c2nc(-c3ccc(C)c(O)c3)[nH]c2C)cc(OC)c1OC | 28.1 nM | 52.3 nM | – | 56 nM | 112 nM | – | – | – | 46.6 nM | 25.6 nM | – | – | – | – | – | –
COc1cc(C(=O)c2cccc(-c3ccc(C)cc3)n2)cc(OC)c1OC | 3.9 nM | 2.4 nM | 317 mL/min/kg | 3.5 nM | 5.3 nM | 1050 mL/min/kg | 4.2 min | 3 min | 3.1 nM | 4.2 nM | – | – | – | – | – | –
COc1cc(C(=O)c2nc(-c3ccc(C)cc3)ccc2F)cc(OC)c1OC | 2.5 nM | 3.7 nM | 133 mL/min/kg | 3.4 nM | 2.3 nM | 273 mL/min/kg | 9.6 min | 12.6 min | 2.6 nM | 1.9 nM | – | – | – | – | – | –
COc1cc(C(=O)c2cccc(-c3ccc(C)c(O)c3)n2)cc(OC)c1OC | 1.1 nM | 2 nM | 116 mL/min/kg | 2.8 nM | 3.3 nM | 57.3 mL/min/kg | 10.8 min | – | 2 nM | 4.1 nM | – | – | – | – | – | 60%
COc1cc(C(=O)c2cc(OC)c(OC)c(OC)c2)nc(-c2ccc(C)c(O)c2)c1 | 14.7 nM | 22.2 nM | 29.2 mL/min/kg | 17.2 nM | 17.6 nM | 76.7 mL/min/kg | 42.6 min | 45 min | 17.5 nM | 16.9 nM | – | – | – | – | – | –
COc1cc(C(=O)c2cc(OC)c(OC)c(OC)c2)nc(-c2ccc(C)cc2)c1 | 5 nM | 7.9 nM | 45 mL/min/kg | 6.8 nM | 11.1 nM | 13 mL/min/kg | 27.6 min | > 240 min | 7.7 nM | 4.5 nM | – | – | – | – | – | –
